{"source": "paper PMC4300089", "about": "“Structure-Guided Design of Selective Epac1 and Epac2 Agonists” (PLoS Biology, 2015)", "key": {"primary human islets": {"tested_on": "primary human islets", "experiment": "Insulin secretion assay in primary human islets", "type": "cell-based", "settings": "25 to 100 μM; compared with Forskolin/IBMX", "description": "Islets were isolated from two human donor pancreases. Intact islets (n = 20 per well) were seeded on ultra-low attachment 96-well plate. After 3 days of culture, the pancreatic islets were washed two times with 115 mM NaCl, 5 mM KCl, 24 mM NaHCO3, 2.2 mM CaCl2, 1 mM MgCl2, 20 mM HEPES, and 0.2% human serum albumin (incubation buffer) and primed for 1.5 h at 37°C in incubation buffer supplemented with 2 mM glucose (low glucose). Subsequently, the cells were incubated in fresh incubation buffer supplemented with 2 mM glucose for 1 h to measure the basal insulin secretion levels. […] The cell supernatants were collected immediately after incubation with low and high glucose. The insulin concentrations were measured by ELISA (Insulin ELISA Kit, Mercodia). The insulin secretion was expressed as the ratio of insulin concentration at high and low glucose concentrations for each well (insulin secretion index)."}, "Epac2^fl": {"biological_target": "T1, Epac2^fl (Mus musculus, UniProt Q9EQZ6)", "T1 sequence (Q9EQZ6 1-993 isoform Q9EQZ6-3)": "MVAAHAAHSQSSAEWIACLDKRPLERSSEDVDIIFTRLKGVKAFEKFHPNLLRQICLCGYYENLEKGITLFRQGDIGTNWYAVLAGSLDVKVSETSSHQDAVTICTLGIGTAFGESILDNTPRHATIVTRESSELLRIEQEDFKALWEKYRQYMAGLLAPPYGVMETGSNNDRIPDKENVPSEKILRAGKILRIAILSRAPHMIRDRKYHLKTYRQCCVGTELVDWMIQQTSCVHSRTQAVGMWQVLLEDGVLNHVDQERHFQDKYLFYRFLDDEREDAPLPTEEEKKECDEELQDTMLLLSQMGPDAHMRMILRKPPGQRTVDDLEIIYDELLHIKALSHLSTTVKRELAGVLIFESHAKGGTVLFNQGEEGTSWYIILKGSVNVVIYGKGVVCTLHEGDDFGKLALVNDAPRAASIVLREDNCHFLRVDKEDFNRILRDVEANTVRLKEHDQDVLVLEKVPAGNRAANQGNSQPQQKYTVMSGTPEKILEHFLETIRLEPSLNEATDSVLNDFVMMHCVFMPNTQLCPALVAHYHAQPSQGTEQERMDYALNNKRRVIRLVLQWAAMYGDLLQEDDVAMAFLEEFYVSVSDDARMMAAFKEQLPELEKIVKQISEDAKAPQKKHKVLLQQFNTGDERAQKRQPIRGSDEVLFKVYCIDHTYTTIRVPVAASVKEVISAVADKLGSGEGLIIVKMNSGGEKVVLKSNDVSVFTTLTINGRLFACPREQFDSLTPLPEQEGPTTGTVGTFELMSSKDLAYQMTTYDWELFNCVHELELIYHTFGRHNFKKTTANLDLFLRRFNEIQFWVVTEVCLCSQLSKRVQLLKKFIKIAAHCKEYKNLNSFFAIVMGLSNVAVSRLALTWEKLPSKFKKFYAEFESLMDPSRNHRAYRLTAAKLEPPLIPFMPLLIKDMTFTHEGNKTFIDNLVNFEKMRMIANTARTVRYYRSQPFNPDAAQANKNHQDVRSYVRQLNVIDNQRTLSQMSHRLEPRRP", "settings": "footnote b, see also ref 11; cited from earlier work"}, "Epac1^Q270K": {"biological_target": "T2, Epac1^Q270K (Homo sapiens, UniProt O95398, Q312K)", "T2 construct": "made in house", "T2 sequence (O95398 150-881 isoform O95398-3 Q270K)": "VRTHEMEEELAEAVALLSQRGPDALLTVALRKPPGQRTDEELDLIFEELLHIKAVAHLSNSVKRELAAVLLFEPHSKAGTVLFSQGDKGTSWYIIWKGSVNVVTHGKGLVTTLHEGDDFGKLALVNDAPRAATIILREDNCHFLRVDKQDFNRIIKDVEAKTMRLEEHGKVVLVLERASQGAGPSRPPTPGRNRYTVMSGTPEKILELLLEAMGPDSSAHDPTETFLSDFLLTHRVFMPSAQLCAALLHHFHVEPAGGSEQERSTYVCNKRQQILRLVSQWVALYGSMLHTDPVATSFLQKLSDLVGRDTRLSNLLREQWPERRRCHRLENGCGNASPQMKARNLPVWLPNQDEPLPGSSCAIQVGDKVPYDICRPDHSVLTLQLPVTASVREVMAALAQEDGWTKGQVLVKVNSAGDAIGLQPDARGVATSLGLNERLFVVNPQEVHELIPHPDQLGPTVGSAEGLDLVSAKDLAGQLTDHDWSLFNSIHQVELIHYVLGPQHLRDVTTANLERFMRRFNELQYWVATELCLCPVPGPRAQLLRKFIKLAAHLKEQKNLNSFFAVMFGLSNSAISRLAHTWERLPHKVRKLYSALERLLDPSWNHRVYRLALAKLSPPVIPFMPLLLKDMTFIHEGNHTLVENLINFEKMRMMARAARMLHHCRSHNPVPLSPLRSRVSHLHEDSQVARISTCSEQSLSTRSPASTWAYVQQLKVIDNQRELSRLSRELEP", "experiment": "Epac activation assay, Epac1 Q270K mutant", "type": "biochemical"}, "Epac2^Δ280,K405Q": {"biological_target": "T3, Epac2^Δ280,K405Q (Mus musculus, UniProt Q9EQZ6, K423Q)", "T3 construct": "made in house", "T3 sequence (Q9EQZ6 281-993 isoform Q9EQZ6-3 K405Q)": "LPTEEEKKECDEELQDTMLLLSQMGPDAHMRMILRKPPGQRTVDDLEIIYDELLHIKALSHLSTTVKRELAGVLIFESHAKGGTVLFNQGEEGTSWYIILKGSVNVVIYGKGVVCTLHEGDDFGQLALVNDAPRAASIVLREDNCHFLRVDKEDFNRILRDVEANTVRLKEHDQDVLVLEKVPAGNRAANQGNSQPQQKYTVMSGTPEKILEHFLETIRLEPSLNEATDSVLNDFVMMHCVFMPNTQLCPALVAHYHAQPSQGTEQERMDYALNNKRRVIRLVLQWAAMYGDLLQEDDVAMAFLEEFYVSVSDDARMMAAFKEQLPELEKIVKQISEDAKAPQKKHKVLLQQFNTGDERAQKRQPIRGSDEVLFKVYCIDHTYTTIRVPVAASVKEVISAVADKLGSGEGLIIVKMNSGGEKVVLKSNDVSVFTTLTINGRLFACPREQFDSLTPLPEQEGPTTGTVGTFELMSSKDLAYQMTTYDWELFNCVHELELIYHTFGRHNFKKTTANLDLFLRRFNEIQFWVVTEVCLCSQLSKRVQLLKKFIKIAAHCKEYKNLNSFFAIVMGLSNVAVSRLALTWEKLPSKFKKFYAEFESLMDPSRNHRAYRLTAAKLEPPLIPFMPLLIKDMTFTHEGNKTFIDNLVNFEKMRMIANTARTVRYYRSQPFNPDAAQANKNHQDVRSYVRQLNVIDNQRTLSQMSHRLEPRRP", "experiment": "Epac activation assay, Epac2 K405Q mutant", "type": "biochemical", "description": "Murine Epac2 was used as all previous structural studies were performed with it.\nThe activity of Epac was determined by a fluorescence assay. […] The fluorescence intensity of Rap1B•mGDP is approximately twice that of free mGDP, and thus, nucleotide exchange can be observed as a decay in fluorescence upon the addition of excess unlabeled GDP."}}, "data": [{"molecule": "Nc1ncnc2c1nc(SCc1ccccc1)n2[C@@H]1O[C@@H]2CO[P@](O)(=S)O[C@H]2[C@H]1O", "note": "[S-220, Sp-8-BnT-cAMPS]", "values": [{"measurement": "glucose-induced insulin secretion", "setting": "primary human islets", "value": "potentiates glucose-induced insulin secretion with similar efficiency"}]}, {"molecule": "Nc1ncnc2c1ncn2[C@@H]1O[C@@H]2COP(=O)(O)O[C@H]2[C@H]1O", "note": "[cAMP, reference compound]", "values": [{"measurement": "Rel. kmax", "setting": "Epac2^fl", "value": "1.0^b"}]}, {"molecule": "COC1C2OP(=O)(O)OCC2OC1n1c(Sc2ccc(Cl)cc2)nc2c(N)ncnc21", "note": "[D-007, 8-pCPT-2′-O-Me-cAMP, reference compound]", "values": [{"measurement": "activation", "setting": "Epac1^Q270K", "value": "poorly activated"}, {"measurement": "activation", "setting": "Epac2^Δ280,K405Q", "value": "efficiently activated"}]}]}
